The target of this experiment is T1, fibroblast activation protein (FAP) (Homo sapiens, UniProt Q12884).
T1 sequence (Q12884 1-760): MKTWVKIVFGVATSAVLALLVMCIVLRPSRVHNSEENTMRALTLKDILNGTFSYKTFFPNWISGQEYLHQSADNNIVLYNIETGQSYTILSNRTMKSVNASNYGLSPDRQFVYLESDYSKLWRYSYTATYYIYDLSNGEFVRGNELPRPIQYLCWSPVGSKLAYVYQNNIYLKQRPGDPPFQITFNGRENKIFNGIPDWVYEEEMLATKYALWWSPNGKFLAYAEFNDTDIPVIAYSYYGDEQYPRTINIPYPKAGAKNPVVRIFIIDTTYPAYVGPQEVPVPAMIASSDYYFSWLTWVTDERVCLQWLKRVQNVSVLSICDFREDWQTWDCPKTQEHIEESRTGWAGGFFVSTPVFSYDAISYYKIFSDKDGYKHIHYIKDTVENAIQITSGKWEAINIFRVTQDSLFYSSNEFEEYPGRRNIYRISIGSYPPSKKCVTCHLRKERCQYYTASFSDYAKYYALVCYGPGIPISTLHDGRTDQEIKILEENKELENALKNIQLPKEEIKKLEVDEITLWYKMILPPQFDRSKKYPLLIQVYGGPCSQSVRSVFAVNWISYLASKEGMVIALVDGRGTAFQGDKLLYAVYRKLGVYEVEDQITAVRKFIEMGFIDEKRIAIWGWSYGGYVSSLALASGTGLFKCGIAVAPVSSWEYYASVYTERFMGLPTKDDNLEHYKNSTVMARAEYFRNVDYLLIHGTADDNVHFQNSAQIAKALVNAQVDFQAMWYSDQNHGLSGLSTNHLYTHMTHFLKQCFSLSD
Kind of experiment: unlabelled competitor ([…] concentrations) displacing […]-iFAP from HCT116 cells. Format: cell-based.

As to `C[C@H](NC(=O)c1ccc(NNC(=S)Nc2ccc(CC3CN(CC(=O)O)CCN(CC(=O)O)CCN(CC(=O)O)CCN3CC(=O)O)cc2)nc1)C(=O)N1CCC[C@@H]1B(O)O` (stereo partly drawn) [DOTA-iFAP, 2,2′,2″,2‴-(2-(4-(2-(5-(((S)-1-((S)-2-boronopyrrolidin-1-yl)-1-oxopropan-2-yl)carbamoyl)pyridin-2-yl)hydrazine-1-carbothioamido)benzyl)-1,4,7,10-tetraazacyclododecane-1,4,7,10-tetrayl)tetraacetic acid], the IC50 turned out to be 0.57 nM.
